For series [1], the system named is Beagle bitches. Put plainly: Contragestational effect in Beagle bitches after a single intramuscular dose. It counts as in vivo. Particulars: for Pregnancy arrest (%): single i.m. 5 mg/kg (11.1 μmoles/kg). How it is done:
The compound was given intramuscularly in one depot site of the thigh muscle of the right hind leg dissolved in sesame oil at the dose of 5 mg/kg (11.1 μmoles/kg , […], 0.2 mL/kg). The anti-gestative effectiveness was ascertained by exploratory laparatomy examining uterine horns where the presence of live or dead foetuses was deduced from the dimension and appearance of each uterine swelling, for methodological reference see G. Galliani et al., J. Small Animal Practice, 25, 211-222 (1984).

The test system of series [2] is SRBC. Kind of series: Delayed type hypersensitivity (DTH), footpad swelling. Format: in vivo, C57B1/6 mice. The settings on record: dosing day 0, 3.60 μmoles/Kg/day; vehicle 11.4 + 3.7. Here is the method:
Delayed Type hypersensitivity (DTH), was carried out in C57B1/6 mice administered subcutaneously 2×10^8 SRBC emulsified in complete Freund's adjuvant. Ten days later an eliciting dose of 10^8 SRBC was inoculated into a footpad. The DTH reaction was recorded 24 hours later by measuring the footpad swelling (Kerckhaert et al, i Cell Immunology, 29, 232, (1977).

Series [3] relates to grafts of skin from C3H (H-2^k) donor mice. Kind of series: Skin graft survival time (C3H donor onto C57B1/6 recipient). It counts as in vivo, C57B1/6 mice. The settings on record: dosing days −1, 7, 17.20 μmols/Kg/day; vehicle 10.7 + 0.4. Here is the method:
For the Skin Grafting, fitted pinch, grafts of skin from C3H (H-2^k) donor mice were transplanted onto C57B1/6 (H-2^b) recipient mice (Mistrello et al,. 1984) Bandages were removed 7 days later and graft were scored daily by microscopy. Rejection was recorded when no viable epidermis remained. The median survival time (MST) of the grafts, measured as days, was calculated according to Litchfield (1949).

Series [4] relates to human chorio-carcinoma. Put plainly: Growth of human chorio-carcinoma transplanted into nude mice. It counts as in vivo.
The subject of series [5] is S.D. Rats. Kind of series: Pregnancy termination activity in S.D. rats after a single subcutaneous injection at day 7 of gestation. It counts as in vivo, Sprague Dawley rats. The settings on record: single subcutaneous injection on day 7 of gestation; for ED50: Rattus norvegicus, sc, autopsy day 16, read-out: ED50 (dose terminating pregnancy, absence of live foetuses, in 50% of treated animals); for ED50 (dose terminating pregnancy in 50% of treated animals): autopsy day 16. Here is the method:
In particular, female Sprague Dawley rats weighing 200-230 g. were mated and the presence of sperm was detected, was considered day one of pregnancy.
Pregnancy was later confirmed at the time of autopsy by the presence of implantation sites in the uterus.
Test compounds dissolved in sesame oil containing 20% benzyl benzoate (or suspended if insoluble), were administered subcutaneously, in a single injection, on day 7 of gestation. The animals were then autopsied on day 16 of pregnancy and the uteri were examined for evidence of pregnancy (implantation sites, foetal resorption or live foetuses), haemorrhage, and evidence of abnormalities of the uterus, placenta or foetuses, for reference see G. Galliani et al. Contraception, 23, 163-180 (198).
These values identify the dose levels which terminate pregnancy (absence of live foetuses) in 50% of the treated animals.

A short description of series [6]: Acute toxicity studies. Particulars: in vivo. How it is done:
Acute toxicity studies did show as the lethal doses of compounds (VI), LD50>500 mg/kg, are of three order of magnitude higher than those anti-gestative.

Series [7] deals with Sheep Red Blood Cells (SRBC). Kind of series: IgM antibody response to SRBC (direct plaque forming cells in spleen). Format: in vivo, B6D2F1 mice. Particulars: antigen SRBC, dosing day 0, 8.60 μmoles/Kg/day; vehicle 124 + 18; p < 0.01. How it is done:
(§1) In detail, the Antibody Response to Sheep Red Blood Cells (SRBC) and to Lipo-polysaccharide (LPS), was studied in B6D2F1 mice injected intravenously 10^8 SRBC (day 0). Direct (IgM) and indirect (IgG) plaque forming cells (PFC) were evaluated in the spleen 4 and 10 days later, Jerne et al. Science 140, 405 (1963) and Dresser and Wortis, Nature, 208, 859(1965).

For series [8], the system named is Lipo-polysaccharide (LPS). Kind of series: IgM antibody response to LPS (plaque forming cells in spleen). The settings on record: antigen LPS, dosing day 0, 8.60 μmoles/Kg/day; vehicle 10 + 2; p < 0.01. Format: in vivo, B6D2F1 mice. Here is the method:
as §1
(§2) Indirect PCF were developed with rabbit anti-serum to mouse gamma globulin. B6D2F1 mice were immunised with 20 μg LPS intra-peritoneally. Four days later, PCF were determined in the spleen by SRBC coated with LPS, Moller, Nature, 207, 1166(1965).

The subject of series [9] is Sheep Red Blood Cells (SRBC). Kind of series: IgG antibody response to SRBC (indirect plaque forming cells in spleen). Particulars: dosing day 0, 2.15 μmoles/Kg/day; vehicle 24 + 3. Format: in vivo, B6D2F1 mice. Here is the method: as §1, §2

Marks after values point to notes of the source that are not given here. Where only a bound is given, the exact number is not on record here.

One may read the ED50 as the midpoint of the dose-response relation. One may read the LD50 as the dose expected to kill half of the subjects tested.

Take `CCCCCCCCOC(=O)OCc1ccccc1-c1n[nH]c(-c2cccc(OCC)c2)n1` [(VI)]: the “Pregnancy arrest (%)” value is reported as 80% in series [1] (administered day 15 of gestation), 100% in [1] (administered day 20 of gestation) and 100% in [1] (administered day 25 of gestation). In series [1] (single intramuscular dose), the “Tolerability” value is on record as “very well tolerated”. The “Anti-gestative effectiveness” value in series [1] (single intramuscular dose between day of mating and 25th day of gestation) is listed as “highly effective”. Besides, the “FOOTPAD SWELLING UNITS (Mean + S.D.), DTH” value in [2] is given as 5.2 + 1.2** UNITS. In addition, the “MST, days (mean ± S. D.), skin graft median survival time” value in series [3] is 15.1 + 0.6* days. For the same molecule, in series [4] (human chorio-carcinoma transplanted into nude mice), the “Potency compared with methotrexate” value was “even higher than that displayed by methotrexate”. Moreover, the “Inhibition of the growth of human chorio-carcinoma” value in [4] (transplanted into nude mice) is recorded as “highly effective”. Also, in series [5], the ED50 was found to be 2 mg/kg. For the same molecule, the “ED50 (dose terminating pregnancy in 50% of treated animals)” value in series [5] stood at 4.4 µmol/kg. Further, in series [6], the LD50 is over 500 mg/kg. Further, the figures for the “PCF/spleen.10^−3 (mean = S.D.), IgM response” value in series [7] and in series [8] were 12 + 3* PCF/spleen.10^−3 and 3 + 1* PCF/spleen.10^−3, respectively. The “PFC/SPLEEN.10^−3 (mean + S.D.), IgG response to SRBC” value in [9] was 3 + 3* PFC/SPLEEN.10^−3.
On to `CCCCOC(=O)OCc1ccccc1-c1n[nH]c(-c2cccc(OCC)c2)n1` [(XIV)], for which, in series [5], the ED50 was 8 mg/kg and the “ED50 (dose terminating pregnancy in 50% of treated animals)” value stood at 20.3 µmol/kg.
The corresponding values for `CCOC(=O)OCc1ccccc1-c1n[nH]c(-c2cccc(OCC)c2)n1` [(XV)] are 15 mg/kg and 27.2 µmol/kg.
The corresponding values for `CCCCCCOC(=O)OCc1ccccc1-c1n[nH]c(-c2cccc(OCC)c2)n1` [(XVI)] are 5 mg/kg and 11.8 µmol/kg.
The like results for `CCOc1cccc(-c2n[nH]c(-c3ccccc3CO)n2)c1` [D, 5-(2-Hydroxymethylphenyl)-3-(3-ethoxy-phenyl)-1H-1,2,4-triazole, reference compound] were, in that order, 16 mg/kg and 54.6 µmol/kg.
